How the values were obtained:
honeybees = assay: Honeybee repulsion feeding station experiment, repellent in 50% sucrose solution; format: in vivo; conditions: 2% by weight with 50% sucrose
Procedure: FIG. 1 describes the feeding station arrangement (A and B) for the honeybee repulsion experiments described herein. As set forth in FIG. 1, panel (A) sets forth the bee cage positions on the left portion of panel (A) with the randomized feeding station positions on the right portion of panel (A). Panel (B) sets forth an alignment of the randomized feeding station positions with a distance of two meters between feeding stations. A total of eight feeding stations were evaluated at a ten meter distance in front of the respective bee hives. The feeding stations were placed two meters apart from one another.
Honeybees were trained to deep feeders (eight positions), each containing a 50% sucrose solution for one day. After the honeybees were trained to each feeder, the 50% sucrose feeder at randomized positions 1-8 was replaced with a shallow feeder containing a combination of repelling compounds and a 50% sucrose solution according to Table 5. In accordance with FIGS. 5 and 6, 2% by weight of Camphor oil (T4), Ajowan oil (T5), Camphor powder (T6), Rosemary oil (T7), and 2-Decanone (T8) in combination with a 50% sucrose treatment were added to feeders on day two.
Table 5 describes active agents evaluated for bee repulsion and their randomized feeding station positions. As described in Table 5, T1 (control), T2 (control), T3 (control), T4 (Camphor oil), T5 (Ajowan oil), T6 (Camphor powder), T7 (Rosemary oil), and T8 (2-Decanone).
FIG. 5 evaluates the number of bees visiting a respective feed station over a time interval. FIG. 6 sets forth the mean number of honeybees visiting feeding station over a period of four hours.

[1] = Stability test of Poncho 600 with Eugenol, clothianidin content by HPLC; format: physicochemical; conditions: combined with Eugenol; up to 54° C. for seven days
Procedure: Table 6 describes a stability test with a combination of Eugenol and Poncho evaluated at room temperature, 40° C., and 54° C. at zero time, 3 days, and 7 days as confirmed by high performance liquid chromatography (HPLC).

[2] = Stability test of Poncho 600 with α-terpineol, clothianidin content by HPLC; format: physicochemical; conditions: combined with alpha-terpineol; up to 54° C. for eight days
Procedure: Table 7 describes a stability test with a combination of α-terpineol and Poncho 600 evaluated at room temperature, 40° C., and 54° C. at zero time, 2 days, and 8 days as confirmed by HPLC.

Compound	repellency to honeybees over the full 4 hour assessment period (honeybees; 4 hours)	repellency to honeybees at 24 hours (honeybees)	repellency to honeybees at 24 hours (honeybees; listed as 2-Decanone)	chemical stability of clothianidin content [1]	chemical stability of clothianidin content [2]
CCCCCCCCC(C)=O [Compound 2-decanone, 2-decanone]	highly repellent	still repellent	exhibited repellency	–	–
CN/C(=N\[N+](=O)[O-])NCc1cnc(Cl)s1 [clothianidin]	–	–	–	exhibited chemical stability	exhibited chemical stability

— US11963527B2, “Compounds, compositions, and methods for altering insect and organism behavior” (BASF Corporation, priority 2013, dated 2024)
